We go through three compounds from EP0673649A1, “Pharmaceutical compositions for the prolonged release of trimetazidine after oral administration” (ADIR ET COMPAGNIE, priority 1994, dated 1995).

The conditions of data set [1]: plasticizer added at 20 % to Eudragit RS® film; measured with chlorhydrate de phénylpropanolamine; cited from earlier work.
The nature of data set [2]: in vitro dissolution / release of trimetazidine dihydrochloride from reservoir forms. To be noted: release of trimetazidine dihydrochloride through a film containing this plasticizer (figure 1). The format is physicochemical.
Data set [3] can be described thus: solubility in water of trimetazidine dihydrochloride. The format is physicochemical. To be noted: read-out: solubilité du dichlorhydrate dans l'eau. The method, then:
Le poids moléculaire de la trimétazidine sous forme de base est de 266,33 et la solubilité du dichlorhydrate dans l'eau supérieure à 1000 mg/ml. De ce fait, il était très difficile d'obtenir des comprimés matriciels contrôlant la libération du principe actif sur plus de 16 heures. Ce problème a été résolu par l'utilisation du système réservoir décrit dans la présente invention.

The conditions of data set [4]: immediate-release oral forms; background statement; cited from earlier work.

For `CCOC(=O)c1ccccc1C(=O)OCC` [Diéthylphtalate], the Perméabilité in data set [1] was 14.8 mg.cm⁻².h⁻¹.

For the compound `CC(=O)OCC(COC(C)=O)OC(C)=O` [Triacétine], the Perméabilité in data set [1] is recorded as 6.2 mg.cm⁻².h⁻¹. Moreover, the temps de latence entry in data set [2] was “très long qui peut atteindre quatre heures”. Regarding `COc1ccc(CN2CCNCC2)c(OC)c1OC` [dichlorhydrate de trimétazidine, 1-(2,3,4-triméthoxybenzyl)pipérazine], the solubility in data set [3] is over 1000 mg/mL. Further, the demi-vie plasmatique in data set [4] was under 6 heures.
